Data published in patent publication US20200237766A1, “PKM2 ACTIVATORS IN COMBINATION WITH REACTIVE OXYGEN SPECIES FOR TREATMENT OF CANCER” (TOLERO PHARMACEUTICALS, INC., priority 2017, published 2020).
Read-outs that look alike come from different tables or passages of the source.

Molecular target: PKM2 (Homo sapiens, UniProt P14618)
Test: PKM2 activation biochemical assay (AC50 / max. response vs fructose 1,6-bisphosphate)
Settings: for Max. Resp. (%): % maximum response in a biochemical assay as compared with Fructose 1,6-bisphosphate
[1] = biochemical assay, read-out: PKM2 AC50

Chain of PKM2 (P14618 whole entry): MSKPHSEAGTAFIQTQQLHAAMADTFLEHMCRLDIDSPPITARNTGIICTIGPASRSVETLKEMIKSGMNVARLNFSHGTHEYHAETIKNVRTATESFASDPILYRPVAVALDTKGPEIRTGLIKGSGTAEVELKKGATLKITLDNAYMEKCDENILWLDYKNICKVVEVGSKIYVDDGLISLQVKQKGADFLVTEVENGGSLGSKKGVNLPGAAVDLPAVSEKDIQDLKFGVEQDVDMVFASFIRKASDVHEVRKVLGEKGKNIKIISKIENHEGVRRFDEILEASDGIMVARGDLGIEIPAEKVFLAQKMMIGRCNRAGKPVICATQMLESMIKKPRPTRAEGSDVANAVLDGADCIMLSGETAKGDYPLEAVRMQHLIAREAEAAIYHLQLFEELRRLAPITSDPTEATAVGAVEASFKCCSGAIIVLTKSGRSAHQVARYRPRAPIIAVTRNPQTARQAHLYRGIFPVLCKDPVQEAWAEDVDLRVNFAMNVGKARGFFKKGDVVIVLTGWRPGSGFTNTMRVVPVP

Row | SMILES | Max. Resp. (%) | AC50 [1] [nM] | AC50 [nM]
1 | CC1CCCCN1CCN(Cc1cc(N)ccc1Cl)C(=O)c1cc(C(F)(F)F)n[nH]1 (centres unmarked) [Compound 202] | 100% | 395 | –
2 | CCN(CC)CCN(Cc1ccccc1Cl)C(=O)c1[nH]nc(Cl)c1F [Compound 193] | 58% | 14000 | –
3 | CN(C)Cc1c[nH]c2cccc(CN(CC3CCC3)C(=O)c3cc(Cl)n[nH]3)c12 [Compound 118] | 100% | 7000 | –
4 | O=C(c1cc(C(F)(F)F)n[nH]1)N(CCC1CC1)Cc1ccccc1F [Compound 149] | 100% | 2000 | –
5 | O=C(CCSC(=S)NCc1cccnc1)c1ccc(F)c(F)c1 [PMA21] | 42% | > 20000 | –
6 | O=C(c1cc(C(F)(F)F)n[nH]1)N(Cc1ccc(O)cc1F)C1CCCCC1 [Compound 139] | 100% | 152 | –
7 | O=C(c1cc(C(F)(F)F)n[nH]1)N(CCN1CCC(O)CC1)Cc1ccccc1Cl [Compound 219] | 100% | 1300 | –
8 | Nc1cccc(Cl)c1CN(CCN1CCCC(F)C1)C(=O)c1cc(C(F)(F)F)n[nH]1 (centres unmarked) [Compound 236] | 73% | 160 | –
9 | Cc1ccc2nc(Cn3c(C)nc4ccccc43)cc(=O)n2c1 [PP2] | 73% | – | –
10 | CCCCCN(Cc1ccccc1)C(=O)c1cc(C(F)(F)F)n[nH]1 [Compound 19] | 76% | 920 | –
11 | CN1CCN(CCN(Cc2ccccc2Cl)C(=O)c2cc(C(F)(F)F)n[nH]2)CC1 [Compound 104] | 63% | 17000 | –
12 | COC1CCCN(CCN(Cc2c(N)cccc2Cl)C(=O)c2cc(C(F)(F)F)n[nH]2)C1 (centres unmarked) [Compound 237] | 100% | 183 | –
13 | O=C(c1cc(C(F)(F)F)n[nH]1)N(CCC1CCS(=O)(=O)C1)Cc1ccccn1 (centres unmarked) [Compound 88] | 96% | 3600 | –
14 | COc1ccc2nc(Cn3cnc4ccccc43)cc(=O)n2c1 [PP12] | – | 470 | –
15 | O=C(c1cc(C(F)(F)F)n[nH]1)N(CCC1CCNCC1)Cc1ccccc1F [Compound 98] | 56% | – | 2050
16 | O=C(CCSC(=S)NCc1cccnc1)c1cccnc1 [PMA29] | 106% | 3700 | –
17 | O=C(c1cc(C(F)(F)F)n[nH]1)N(CCC1CCCOC1)Cc1ccccc1Cl (centres unmarked) [Compound 36] | 88% | 1220 | –
18 | COc1c(N)cccc1CN(CCN1CCCCCC1)C(=O)c1cc(C(F)(F)F)n[nH]1 [Compound 217] | 100% | 230 | –
19 | CO[C@H]1CC[C@H](N(Cc2ncccc2Cl)C(=O)c2cc(C(F)(F)F)n[nH]2)CC1 [Compound 56] | 48% | – | 2580
20 | COc1cccc(NS(=O)(=O)c2cc3c(cc2Cl)NC(=O)CO3)c1 [PP20] | 108% | 153 | –
21 | O=C(c1cc(C(F)(F)F)n[nH]1)N(CCC1CCS(=O)(=O)C1)Cc1ccccc1F (centres unmarked) [Compound 63] | 87% | 240 | –
22 | O=C(c1cc(C(F)(F)F)n[nH]1)N(CCN1CCCCC1)Cc1ccccc1Cl [Compound 173] | 100% | 66 | –
23 | COc1ccc(C(=O)CCSC(=S)NCc2cccnc2)cc1 [PMA16] | 63% | 11200 | –

Row | SMILES | Max. Resp. (%) | AC50 [1] [nM] | AC50 [nM]
24 | COCCCN(Cc1ccccc1F)C(=O)c1cc(C(F)(F)F)n[nH]1 [Compound 23] | 75% | 7540 | –
25 | O=C(c1cc(C(F)(F)F)n[nH]1)N(Cc1ccc(O)cc1F)CC1CCC1 [Compound 1] | 100% | – | –
26 | Cn1cc(C(=O)c2cccc(Cl)c2Cl)cc1C(=O)NCNC(=O)c1cc(C(=O)c2cccc(Cl)c2Cl)cn1C [CA4] | – | 3.2 | –
27 | CCN(CC)CCN(Cc1ccccc1C(C)C)C(=O)c1cc(C(F)(F)F)n[nH]1 [Compound 184] | 85% | 1950 | –
28 | O=C(c1cc(C(F)(F)F)n[nH]1)N(CCC1CCOCC1)Cc1ccccc1Cl [Compound 32] | 107% | 1000 | –
29 | O=C(c1cc(C(F)(F)F)n[nH]1)N(Cc1ccccc1F)C1CCOCC1 [Compound 22] | 99% | 1520 | –
30 | O=C(c1cc(C(F)(F)F)n[nH]1)N(Cc1ccccc1F)c1ncco1 [Compound 25] | 35% | 53000 | –
31 | Nc1cccc(Cl)c1CN(CCN1CCCC(F)CC1)C(=O)c1cc(C(F)(F)F)n[nH]1 (centres unmarked) [Compound 243] | 100% | 106 | –
32 | COc1ccccc1C(=O)CCSC(=S)NCc1cccnc1 [PMA18] | 88% | 3930 | –
33 | O=C(c1cc(C(F)(F)F)n[nH]1)N(CCN1CCCC1)Cc1ccc(Cl)cc1Cl [Compound 165] | 50% | 45000 | –
34 | O=c1cc(Cn2cnc3ccccc32)nc2ccc(Cl)cn12 [PP10] | – | 219 | –
35 | O=C(c1cc(C(F)(F)F)n[nH]1)N(Cc1ccc(O)cc1F)C1CCCC1 [Compound 132] | 100% | 213 | –
36 | O=C(c1cc(C(F)(F)F)n[nH]1)N(Cc1ccccc1F)CC1COC1 [Compound 20] | 70% | 12000 | –
37 | CCOCCN(Cc1c(Cl)cccc1Cl)C(=O)c1cc(C(F)(F)F)n[nH]1 [Compound 42] | 76% | 8780 | –
38 | O=C(c1cc(C(F)(F)F)n[nH]1)N(CCN1CCCC1)Cc1c(F)cccc1Cl [Compound 177] | 100% | 180 | –
39 | O=C(c1cc(C(F)(F)F)n[nH]1)N(Cc1ccccc1F)CC1CCS(=O)(=O)CC1 [Compound 71] | 71% | 10200 | –
40 | O=C(c1cc(C(F)(F)F)n[nH]1)N(CCC1CCS(=O)(=O)C1)Cc1ccncc1 (centres unmarked) [Compound 89] | 35% | 58000 | –
41 | O=C(c1cc(C(F)(F)F)n[nH]1)N(CCN1CCS(=O)(=O)CC1)Cc1cccc(F)c1F [Compound 111] | 64% | 13100 | –
42 | O=C(CCSC(=S)NCc1cccnc1)c1nccs1 [PMA28] | 72% | 3560 | –
43 | CCN(CC)CCN(Cc1ccc(O)cc1F)C(=O)c1cc(C(F)(F)F)n[nH]1 [Compound 143] | 100% | 108 | –
44 | Nc1cccc(Cl)c1CN(CCN1CC[C@@H](F)C1)C(=O)c1cc(C(F)(F)F)n[nH]1 [Compound 242] | 100% | – | 465
45 | O=C(c1cc(C(F)(F)F)n[nH]1)N(CCN1CCCC1)Cc1cccc2[nH]cc(F)c12 [Compound 206] | 100% | 136 | –
46 | O=C(c1cc(C(F)(F)F)n[nH]1)N(CCC1CCS(=O)(=O)C1)Cc1ccc(O)cc1F (centres unmarked) [Compound 76] | 93% | 54 | –

Row | SMILES | Max. Resp. (%) | AC50 [1] [nM] | AC50 [nM]
47 | O=C(c1cc(C(F)(F)F)n[nH]1)N(CCC(F)(F)F)Cc1ccc(O)cc1F [Compound 130] | 100% | 1000 | –
48 | Cc1ccc2nc(Cn3cnc4ccccc43)cc(=O)n2c1 [PP3] | 149% | 755 | –
49 | CS(=O)(=O)N1CCCC(CCN(Cc2ccccc2Cl)C(=O)c2cc(C(F)(F)F)n[nH]2)C1 (centres unmarked) [Compound 228] | 100% | 2000 | –
50 | O=C(c1cc(C(F)(F)F)n[nH]1)N(CCC1CCS(=O)(=O)C1)Cc1c(F)cccc1F (centres unmarked) [Compound 66] | 102% | – | 375
51 | O=C(c1cc(C(F)(F)F)n[nH]1)N(CCN1CCS(=O)(=O)CC1)Cc1c(Cl)cccc1Cl [Compound 110] | 84% | 1640 | –
52 | O=C(c1cc(C(F)(F)F)n[nH]1)N(CCC1CCS(=O)(=O)C1)Cc1cccc([N+](=O)[O-])c1Cl (centres unmarked) [Compound 94] | 69% | 2380 | –
53 | COC1CCN(CCN(Cc2c(N)cccc2Cl)C(=O)c2cc(C(F)(F)F)n[nH]2)C1 (centres unmarked) [Compound 235] | 100% | 133 | –
54 | O=C(c1cc(C(F)(F)F)n[nH]1)N(CCC1CCOC1)Cc1c(Cl)cccc1Cl (centres unmarked) [Compound 33] | 81% | 4030 | –
55 | O=C(c1cc(C(F)(F)F)n[nH]1)N(CCC1CCC2(CC1)OCCO2)Cc1ccccc1F [Compound 59] | 100% | 494 | –
56 | Nc1cccc(Cl)c1CN(CCN1CCC(O)C1)C(=O)c1cc(C(F)(F)F)n[nH]1 (centres unmarked) [Compound 234] | 100% | 111 | –
57 | O=C(c1cc(Cl)n[nH]1)N(CCC1CCSCC1)Cc1ccccc1F [Compound 80] | 46% | – | 1300
58 | O=C(CCSC(=S)NCc1cccnc1)c1ccc(Cl)cc1 [PMA9] | – | > 20000 | –
59 | O=C(c1cc(Cl)n[nH]1)N(Cc1cccc2[nH]cnc12)CC1CCC1 [Compound 119] | 100% | 2930 | –
60 | O=C(c1cc(C(F)(F)F)n[nH]1)N(CCN1CCCCCC1)Cc1ccccc1F [Compound 197] | 100% | 63 | –
61 | CCC1CCN(CCN(Cc2ccccc2Cl)C(=O)c2cc(C(F)(F)F)n[nH]2)CC1 [Compound 199] | 100/100% | 100 | –
62 | O=C(c1cc(Br)n[nH]1)N(Cc1ccc(O)cc1Cl)CC1CCC1 [Compound 125] | 100% | 35 | –
63 | O=C1CCC(CCN(Cc2ccccc2F)C(=O)c2cc(C(F)(F)F)n[nH]2)CC1 [Compound 60] | 105% | 101 | –
64 | Nc1ccccc1CN(CCC1CCS(=O)(=O)C1)C(=O)c1cc(C(F)(F)F)n[nH]1 (centres unmarked) [Compound 77] | 43% | – | 34800
65 | CCc1nn2c(=O)cc(Cn3cnc4ccccc43)nc2s1 [PP19] | – | 4760 | –
66 | CCN(CC)CCN(Cc1cccc(Cl)c1Cl)C(=O)c1cc(C(F)(F)F)n[nH]1 [Compound 167] | 100% | 186 | –
67 | COc1ccc(N)cc1CN(CCN1CCCCCC1)C(=O)c1cc(C(F)(F)F)n[nH]1 [Compound 215] | 100% | 1190 | –
68 | CN1CCC(CCN(Cc2ccccc2Cl)C(=O)c2cc(C(F)(F)F)n[nH]2)CC1 [Compound 102] | 71% | 767 | –
69 | N#Cc1cc(C(=O)N(Cc2ccc(O)cc2F)CC2CCC2)[nH]n1 [Compound 2] | 39% | – | 3790
